The values that follow come from article PMC9090566 (RSC Advances, 2018).

The target of this experiment is T4 polynucleotide kinase (T4 PNK) (Tequatrovirus T4, UniProt P06855). The format is biochemical.

The structures appear in SMILES notation.

T4 polynucleotide kinase (T4 PNK), sequence (P06855 whole entry): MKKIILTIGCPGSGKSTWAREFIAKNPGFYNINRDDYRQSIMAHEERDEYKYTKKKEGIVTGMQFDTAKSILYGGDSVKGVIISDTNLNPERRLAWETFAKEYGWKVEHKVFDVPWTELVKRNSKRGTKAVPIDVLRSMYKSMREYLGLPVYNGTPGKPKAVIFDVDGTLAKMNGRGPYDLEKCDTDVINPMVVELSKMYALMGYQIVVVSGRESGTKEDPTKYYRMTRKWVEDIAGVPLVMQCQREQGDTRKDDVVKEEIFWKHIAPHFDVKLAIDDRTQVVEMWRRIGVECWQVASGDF

For the compound `O=S(=O)(O)O` [(NH4)2SO4], the IC50 (commonly the point on the concentration scale where inhibition reaches its midpoint) is 18 mM.
